In patent publication US6930184B2, “Functional fluorescent dyes” (3M Innovative Properties Company, priority 2002, dated 2005):

Columns and labels:
[1] = Solubility in acetone; format: physicochemical; conditions: acetone added until no undissolved dye remained
Protocol: Solubility of the dyes in acetone was determined by weighing a small amount of dye into a jar and adding small aliquots of acetone until no undissolved dye remained.

[2] = Solubility in acrylate monomer (fluorescence measurement); format: physicochemical
Protocol: Solubility of the dyes was determined in various acrylate monomers using standard fluorescence measurement techniques (SPEX Fluorolog-3 Spectrophotometer, SPEX Industries, Edison, N.J.).

[3] = acrylate monomer BMA (butyl methacrylate)
[4] = acrylate monomer LMA (lauryl methacrylate)

Row | SMILES | Solubility of dye in acetone [1] | Solubility of dyes in acrylate monomers [2, 3] | Solubility of dyes in acrylate monomers [2, 4]
1 | C=CC(=O)OCCn1c(=O)c2ccc3sc4ccccc4c4ccc(c1=O)c2c34 [AD-1] | 0.83 g acetone/mg of dye | 1217 μg dye/mL of acrylate monomer | 816 μg dye/mL of acrylate monomer
2 | C=CC(=O)OCCOc1cc2c3ccccc3c(=O)c3ccc4c5ccccc5sc1c4c32 [AD-4] | 11.0 g acetone/mg of dye |  | 
3 | C=CC(=O)OCCOc1cc2c3ccccc3c(=O)c3ccc4c5ccccc5sc1c4c32 [AD-5] | 0.65 g acetone/mg of dye |  | 

The remaining lines, values ahead:

Row | Solubility of dye in acetone [1] | Solubility of dyes in acrylate monomers [2, 3] | Solubility of dyes in acrylate monomers [2, 4] | SMILES
4 | 11.6 g acetone/mg of dye | 559 μg dye/mL of acrylate monomer | 227 μg dye/mL of acrylate monomer | C=CC(=O)OCCn1c(=O)c2ccc3sc4ccccc4c4ccc(c1=O)c2c34 [AD-6]
5 | 0.83 g acetone/mg of dye | 301 μg dye/mL of acrylate monomer | 114 μg dye/mL of acrylate monomer | C=CC(=O)OCCn1c(=O)c2ccc3sc4ccccc4c4ccc(c1=O)c2c34 [AD-7]
